The supplement of paper PMC3937590

Tests used:
Assay in all cases: -log10 GI50 (growth inhibition 50%) (-log10(M)); higher = more potent growth inhibition
21MT1 = test system: 21MT1
In short: (§1)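 Breast cancer cell lines were treated with each compound for 72 hours at nine doses in 1:5 serial dilution, in triplicate, and luminescence was read against a time-zero plate. A Gompertz curve was fitted to the dose-response data by nonlinear least squares to obtain GI50, the molar concentration giving the set level of growth inhibition, which is reported as its negative logarithm. The logarithm is base 10, and values equal to the top dose carry a < qualifier.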

21NT = test system: 21NT
In short: as §1

BT20 = test system: BT20
In short: as §1

HCC1143 = test system: HCC1143
In short: as §1

HCC1428 = test system: HCC1428
In short: as §1

HCC1806 = test system: HCC1806
In short: as §1

HCC3153 = test system: HCC3153
In short: as §1

SKBR3 = test system: SKBR3
In short: as §1

SUM225CWN = test system: SUM225CWN
In short: as §1

ZR751 = test system: ZR751
In short: as §1

BT483 = test system: BT483
In short: as §1

HBL100 = test system: HBL100
In short: as §1

HCC202 = test system: HCC202
In short: as §1

MDAMB436 = test system: MDAMB436
In short: as §1

MDAMB468 = test system: MDAMB468
In short: as §1

S1 = test system: S1
In short: as §1

T4 = test system: T4
In short: as §1

UACC893 = test system: UACC893
In short: as §1

ZR7530 = test system: ZR7530
In short: as §1

SUM102PT = test system: SUM102PT
In short: as §1

| SMILES | -log10 GI50 (21MT1) | -log10 GI50 (21NT) | -log10 GI50 (BT20) | -log10 GI50 (HCC1143) | -log10 GI50 (HCC1428) | -log10 GI50 (HCC1806) | -log10 GI50 (HCC3153) | -log10 GI50 (SKBR3) | -log10 GI50 (SUM225CWN) | -log10 GI50 (ZR751) | -log10 GI50 (BT483) | -log10 GI50 (HBL100) | -log10 GI50 (HCC202) | -log10 GI50 (MDAMB436) | -log10 GI50 (MDAMB468) | -log10 GI50 (S1) | -log10 GI50 (T4) | -log10 GI50 (UACC893) | -log10 GI50 (ZR7530) | -log10 GI50 (SUM102PT) |
| --- | --- | --- | --- | --- | --- | --- | --- | --- | --- | --- | --- | --- | --- | --- | --- | --- | --- | --- | --- | --- |
| CC(=O)NCC(=O)N1[C@@H]2CC[C@H]1c1ccc(Nc3ncc(C(F)(F)F)c(NC4CCC4)n3)cc12 | 5.78 | 5.54 | 5.9 | 5.82 | 5.37 | 5.55 | 5.38 | 5.38 | 5.05 | 4.99 | – | – | – | – | – | – | – | – | – | – |
| CC(=O)Nc1cccc(-n2c(=O)n(C3CC3)c(=O)c3c(Nc4ccc(I)cc4F)n(C)c(=O)c(C)c32)c1 | – | – | – | < 4.78 | < 4.78 | 6.39 | < 4.78 | < 4.78 | – | < 4.78 | < 4.78 | < 4.78 | 6.28 | 4.81 | 4.84 | 8.31 | 9 | 5.77 | < 4.78 | – |
| CC(C)Oc1ccc(C(=O)N[C@H](CNC(=O)CN(C)C)Cc2ccc(-c3cn4cccc([C@H](C)O)c4n3)cc2)cc1Cl | – | – | – | 6.98 | 5.99 | 7.34 | 7.22 | 7.34 | – | 7.09 | 6.44 | 7.33 | 7.76 | 7.92 | 7.61 | 6.37 | 7.2 | 7.7 | 7.68 | 5.18 |
| CCC[C@H](N[C@H]1CCc2cc(F)cc(F)c2C1)C(=O)Nc1cn(C(C)(C)CNCC(C)(C)C)cn1 | 4.38 | < 4.18 | 4.76 | < 4.18 | 4.45 | < 4.18 | 4.37 | 4.91 | 4.84 | 4.72 | – | – | – | – | – | – | – | – | – | – |
| CCNCCCNC/C=C\CNCCCNCC | – | – | – | 4.05 | 3.74 | 3.88 | 5.24 | 3.51 | – | 3.29 | 3.27 | 2.94 | 4.75 | 3.43 | – | 5.46 | 4.76 | 3.63 | < 2.3 | 5.98 |
| CCn1cc(-c2ccnc3[nH]c(-c4cccc(CN(C)C)c4)cc23)c(-c2ccc(NC(=O)N(C)C)cc2)n1 | – | – | – | 5.52 | 5.69 | 5.16 | 4.97 | 5.29 | – | 5.08 | 5.35 | 7.15 | 6.03 | 7.19 | 7.89 | 6.36 | 6.63 | 5.06 | – | 5.52 |
| COc1ccc(-c2cc3c(C)nc(N)nc3n([C@H]3CC[C@H](OCCO)CC3)c2=O)cn1 | 6.54 | 5.84 | 5.44 | 6.86 | 6.51 | 6.43 | 4.87 | 7.33 | 6.79 | 7.62 | – | – | – | – | – | – | – | – | – | – |
| C[C@@H](Oc1cc(-n2cnc3ccc(CN4CCN(C)CC4)cc32)sc1C(N)=O)c1ccccc1C(F)(F)F | – | – | – | 7.17 | 5.33 | 7.95 | 7.78 | 6.92 | – | 5.16 | 5.35 | 8.7 | 8.99 | 7.86 | 8.41 | 7.95 | 7.88 | 8.15 | 5.21 | 5.38 |
| O=C1NC(=O)/C(=C/c2ccc3nccc(-c4ccncc4)c3c2)S1 | – | – | – | 6.24 | 6.28 | 5.82 | 5.54 | 6.82 | – | 5.99 | 6.8 | 5.42 | 7.31 | 6.09 | 6.03 | 7.04 | 7.31 | 7.24 | 6.82 | – |
| C=CCNC1=C2C[C@@H](C)C[C@H](OC)[C@H](O)[C@@H](C)/C=C(\C)[C@H](OC(N)=O)[C@@H](OC)/C=C\C=C(/C)C(=O)NC(=CC1=O)C2=O [17-AAG] | – | – | – | 6.86 | 8.39 | 7.05 | 6.82 | 7.55 | – | 6.83 | 6.68 | 5.97 | 8.27 | 5.96 | 5.64 | 6.89 | – | 7.77 | – | – |
| COc1cc2ncnc(Nc3cccc(Cl)c3)c2cc1OC [AG1478] | – | – | – | < 3.78 | < 3.78 | 4.63 | < 3.78 | 5.4 | – | < 3.78 | < 3.78 | < 3.78 | 5.75 | 4.09 | < 3.78 | 7.25 | – | 6.39 | – | – |
| CCc1c2c(nc3ccc(OC(=O)N4CCC(N5CCCCC5)CC4)cc13)-c1cc3c(c(=O)n1C2)COC(=O)[C@]3(O)CC [CPT-11] | – | – | – | 4.88 | 4.64 | 5.81 | 4.73 | 5.49 | – | 5.44 | 5.22 | 5.5 | 4.32 | 5.18 | 4.49 | < 4.13 | 5.23 | 4.22 | < 4.13 | – |
| O=C(O)C1(C(=O)O)CCC1.[NH2-].[NH2-].[Pt+2] [Carboplatin] | – | – | – | 3.88 | 3.86 | 4.81 | 4.45 | 5 | – | 4.1 | 5.82 | 4.15 | 4.44 | 4.29 | 4.32 | 4.48 | 4.08 | 3.04 | 4.55 | – |
